Source: ChEMBL document CHEMBL4312031, “Discovery of candesartan cilexetic as a novel neddylation inhibitor for suppressing tumor growth” (Eur J Med Chem, 2020)
pIC50: −log10 of the molar value. The source made the active and inactive calls. The rule behind the calls is not given here.

Legend:
[1] = biological target: T1, NEDD8-conjugating enzyme Ubc12 (Homo sapiens) (UniProt P61081); assay: Inhibition of UBC12 in human A549 cells assessed as decrease in Cullin2-Nedd8 adduct level measured after 6 to 12 hrs by Western blot analysis; type: cell-based
T1 sequence (whole entry): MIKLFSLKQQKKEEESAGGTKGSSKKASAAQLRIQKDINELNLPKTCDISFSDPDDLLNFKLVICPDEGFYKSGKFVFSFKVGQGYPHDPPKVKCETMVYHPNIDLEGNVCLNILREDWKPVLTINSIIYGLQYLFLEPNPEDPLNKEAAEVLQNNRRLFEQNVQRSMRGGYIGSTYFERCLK

[2] = test system: MKN-45; assay: Antiproliferative activity against human MKN45 cells measured after 48 hrs by CCK8 assay; type: functional, cell-based; settings: MKN-45, 48 h
[3] = test system: A549; assay: Cell cycle arrest in human A549 cells assessed as accumulation at G1 phase at 25 uM measured after 24 hrs by propidium iodide/RNase A staining based flow cytometry analysis (reference value: 63.84 %); type: functional
[4] = test system: Huh-7; assay: Antiproliferative activity against human HuH7 cells measured after 48 hrs by CCK8 assay; type: functional, cell-based; settings: Huh-7, 48 h
[5] = biological target: T1, NEDD8-conjugating enzyme Ubc12 (Homo sapiens); assay: Inhibition of UBC12 in human A549 cells assessed as decrease in Cullin3-Nedd8 adduct level at 50 uM measured after 6 to 12 hrs by Western blot analysis; type: cell-based
[6] = biological target: SUMO-conjugating enzyme UBC9 (Homo sapiens) (UniProt P63279); assay: Inhibition of Ubc9 in human A549 cells assessed as reduction in protein sumoylation by measuring Ubc9-Sumo adduct formation at 50 to 100 uM by Western blot analysis; type: cell-based
Sequence of SUMO-conjugating enzyme UBC9 (Homo sapiens) (P63279 whole entry): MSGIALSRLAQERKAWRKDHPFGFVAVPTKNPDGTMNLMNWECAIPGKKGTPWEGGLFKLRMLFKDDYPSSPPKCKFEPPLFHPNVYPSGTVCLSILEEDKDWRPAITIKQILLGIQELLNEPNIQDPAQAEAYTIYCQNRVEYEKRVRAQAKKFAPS

[7] = test system: A549; assay: Inhibition of colony formation in human A549 cells measured after 10 days; type: functional, cell-based
[8] = test system: A549; assay: Cell cycle arrest in human A549 cells assessed as accumulation at S phase at 25 uM measured after 24 hrs by propidium iodide/RNase A staining based flow cytometry analysis (reference value: 21.54 %); type: functional
[9] = test system: A549; assay: Antitumor activity against human A549 cells xenografted in nude mouse assessed as decrease in tumor weight at 60 mg/kg, ip qd measured after 22 days; type: functional, organism-based
[10] = test system: MGC-803; assay: Antiproliferative activity against human MGC803 cells measured after 48 hrs by CCK8 assay; type: functional, cell-based; settings: MGC-803, 48 h
[11] = test system: A549; assay: Antiproliferative activity against human A549 cells measured after 48 hrs by CCK8 assay; type: functional, cell-based; settings: A549, 48 h
[12] = test system: A549; assay: Induction of apoptosis in human A549 cells assessed as late apoptotic cells at 25 uM measured after 48 hrs by AnnexinV-FITC/propidium iodide staining based FACS analysis (reference value: 1.71 %); type: functional
[13] = biological target: T1, NEDD8-conjugating enzyme Ubc12 (Homo sapiens); assay: Inhibition of UBC12 in human A549 cells assessed as decrease in Cullin2-Nedd8 adduct level at 50 uM measured after 6 to 12 hrs by Western blot analysis; type: cell-based
[14] = test system: PLC; assay: Antiproliferative activity against human PLC cells measured after 48 hrs by CCK8 assay; type: functional, cell-based
[15] = test system: A549; assay: Cell cycle arrest in human A549 cells assessed as accumulation at G2 phase at 25 uM measured after 24 hrs by propidium iodide/RNase A staining based flow cytometry analysis (reference value: 12.69 %); type: functional
[16] = test system: A549; assay: Effect on SUMO1 level in human A549 cells by Western blot analysis; type: functional, cell-based
[17] = test system: HepG2; assay: Antiproliferative activity against human HepG2 cells measured after 48 hrs by CCK8 assay; type: functional, cell-based; settings: HepG2, 48 h
[18] = biological target: T2, NEDD8/Cullin-1 (Homo sapiens) (UniProt Q13616+Q15843); assay: Inhibition of Nedd8-cullin1 (unknown origin) assessed as decrease in cullin1-Nedd8 adduct formation at 25 to 50 uM preincubated for 10 mins followed by ATP addition and measured after 30 mins by immunoblot analysis; type: protein assay
T2 sequence (Q13616 whole entry, looked up): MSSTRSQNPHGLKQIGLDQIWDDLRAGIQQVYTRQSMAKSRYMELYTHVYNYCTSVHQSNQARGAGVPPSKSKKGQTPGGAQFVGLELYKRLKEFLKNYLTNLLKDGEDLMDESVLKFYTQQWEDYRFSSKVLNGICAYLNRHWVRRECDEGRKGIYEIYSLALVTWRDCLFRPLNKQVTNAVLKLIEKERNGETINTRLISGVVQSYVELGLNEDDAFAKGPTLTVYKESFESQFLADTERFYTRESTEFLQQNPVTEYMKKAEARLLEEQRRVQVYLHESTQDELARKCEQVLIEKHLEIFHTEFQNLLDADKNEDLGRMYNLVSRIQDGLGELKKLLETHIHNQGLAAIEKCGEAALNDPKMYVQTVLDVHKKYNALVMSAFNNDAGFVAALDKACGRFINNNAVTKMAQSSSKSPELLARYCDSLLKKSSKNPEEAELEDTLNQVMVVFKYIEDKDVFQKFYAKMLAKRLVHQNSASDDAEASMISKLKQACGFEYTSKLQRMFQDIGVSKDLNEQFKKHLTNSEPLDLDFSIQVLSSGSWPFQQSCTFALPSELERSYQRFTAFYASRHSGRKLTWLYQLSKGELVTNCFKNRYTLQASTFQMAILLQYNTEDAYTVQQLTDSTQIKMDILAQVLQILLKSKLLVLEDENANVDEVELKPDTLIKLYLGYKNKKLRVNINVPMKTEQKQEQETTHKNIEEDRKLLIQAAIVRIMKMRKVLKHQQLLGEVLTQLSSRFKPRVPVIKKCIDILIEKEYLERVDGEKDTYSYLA
T2 sequence (Q15843 whole entry, looked up): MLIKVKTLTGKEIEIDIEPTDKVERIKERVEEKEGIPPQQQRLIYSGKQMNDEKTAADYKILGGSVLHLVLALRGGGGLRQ

[19] = biological target: T2, NEDD8/Cullin-1 (Homo sapiens); assay: Competitive inhibition of Nedd8-cullin1 (unknown origin) adduct formation at 12.5 to 50 uM assessed as substrate Vmax by Lineweaver-Burk plot analysis; type: protein assay
[20] = test system: A549; assay: Cell cycle arrest in human A549 cells assessed as accumulation at sub-G1 phase at 50 uM measured after 24 hrs by propidium iodide/RNase A staining based flow cytometry analysis (reference value: 0.89 %); type: functional
[21] = biological target: T1, NEDD8-conjugating enzyme Ubc12 (Homo sapiens); assay: Inhibition of UBC12 in human A549 cells assessed as decrease in Cullin3-Nedd8 adduct level measured after 6 to 12 hrs by Western blot analysis; type: cell-based
[22] = test system: A549; assay: Induction of apoptosis in human A549 cells assessed as increase in PARP cleavage at 50 to 100 uM by Western blot analysis; type: functional, cell-based
[23] = test system: A549; assay: Effect on Ub-modified protein level in human A549 cells by Western blot analysis; type: functional, cell-based
[24] = test system: A549; assay: Induction of apoptosis in human A549 cells assessed as late apoptotic cells at 50 uM measured after 48 hrs by AnnexinV-FITC/propidium iodide staining based FACS analysis (reference value: 1.71 %); type: functional
[25] = test system: A549; assay: Cell cycle arrest in human A549 cells assessed as accumulation at S phase at 75 uM measured after 24 hrs by propidium iodide/RNase A staining based flow cytometry analysis (reference value: 21.54 %); type: functional
[26] = biological target: T3, NEDD8/NEDD8-conjugating enzyme Ubc12 (Homo sapiens) (UniProt P61081+Q15843); assay: Inhibition of Nedd8-Ubc12 (unknown origin) assessed as decrease in Ubc12-Nedd8 adduct formation at 50 uM preincubated for 10 mins followed by ATP addition and measured after 30 mins by immunoblot analysis; type: protein-complex assay
[27] = biological target: T3, NEDD8/NEDD8-conjugating enzyme Ubc12 (Homo sapiens); assay: Competitive inhibition of Nedd8-Ubc12 (unknown origin) adduct formation assessed as decrease in Ubc12-Nedd8 adduct formation at 50 uM preincubated for 10 mins followed by ATP addition and measured after 30 mins by immunoblot analysis; type: protein-complex assay
[28] = biological target: T2, NEDD8/Cullin-1 (Homo sapiens); assay: Competitive inhibition of Nedd8-cullin1 (unknown origin) adduct formation assessed as decrease in cullin1-Nedd8 adduct formation at 50 uM preincubated for 10 mins followed by ATP addition and measured after 30 mins by immunoblot analysis; type: protein assay
[29] = biological target: T4, NEDD8-conjugating enzyme UBE2F (Homo sapiens) (UniProt Q969M7); assay: Inhibition of UBE2F in human A549 cells assessed as decrease in Cullin5-Nedd8 adduct level measured after 6 to 12 hrs by Western blot analysis; type: cell-based
T4 sequence (whole entry): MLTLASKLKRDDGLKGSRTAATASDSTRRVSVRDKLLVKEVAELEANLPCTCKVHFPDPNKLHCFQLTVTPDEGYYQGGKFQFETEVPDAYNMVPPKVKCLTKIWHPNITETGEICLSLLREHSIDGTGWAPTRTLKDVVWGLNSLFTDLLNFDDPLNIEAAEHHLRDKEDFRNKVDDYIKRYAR

[30] = test system: A549; assay: Cell cycle arrest in human A549 cells assessed as accumulation at G1 phase at 75 uM measured after 24 hrs by propidium iodide/RNase A staining based flow cytometry analysis (reference value: 63.84 %); type: functional
[31] = test system: T47D; assay: Antiproliferative activity against human T47D cells measured after 48 hrs by CCK8 assay; type: functional, cell-based
[32] = test system: A549; assay: Cell cycle arrest in human A549 cells assessed as accumulation at G1 phase at 50 uM measured after 24 hrs by propidium iodide/RNase A staining based flow cytometry analysis (reference value: 63.84 %); type: functional

inhibition [1]: Dose-dependent effect | pIC50 [2]: 4.16 | pIC50 [4]: < 4.00 | inhibition [5]: Active | inhibition [6]: inactive | pIC50 [10]: 4.24 | pIC50 [11]: 4.19 | inhibition [13]: Active | pIC50 [17]: < 4.00 | inhibition [18]: Active | inhibition [19]: Active | inhibition [21]: Dose-dependent effect | inhibition [26]: 100% | inhibition [27]: Active | inhibition [28]: Active | inhibition [29]: Dose-dependent effect | pIC50 [31]: 4.19
Compound: CCOc1nc2cccc(C(=O)OC(C)OC(=O)OC3CCCCC3)c2n1Cc1ccc(-c2ccccc2-c2nn[nH]n2)cc1 (configuration not stated) [CANDESARTAN CILEXETIL]
Activity [3]: 63.02% | inhibition [7]: Dose-dependent effect | Activity [8]: 18.37% | Activity [9]: Active | Activity [12]: 5.5% | pIC50 [14]: 4.22 | Activity [15]: 6.48% | Activity [16]: inactive | Activity [20]: 20.35% | Activity [22]: Active | Activity [23]: Active | Activity [24]: 13.36% | Activity [25]: 19.74% | Activity [30]: 40.44% | Activity [32]: 60.18%
